Assay results published in US10597388B2, “Pyridazinone herbicides” (FMC CORPORATION, priority 2014, dated 2020).

How the values were obtained:
Assay in all cases: Test E greenhouse herbicide test, pre- and postemergence
Type in all cases: in vivo
Details in all cases: Preemergence
[1] = system: kochia (Kochia scoparia)
From the text: (§1) Seeds of plant species selected from corn (Zea mays), soybean (Glycine max), velvetleaf (Abutilon theophrasti), lambsquarters (Chenopodium album), wild poinsettia (Euphorbia heterophylla), pigweed, palmer (palmer pigweed, Amaranthus palmeri), waterhemp (common waterhemp, Amaranthus rudis), surinam grass (Brachiaria decumbens), crabgrass, large (large crabgrass, Digitaria sanguinalis), crabgrass, Brazilian (Brazilian crabgrass, Digitaria horizontalis), panicum, fall (fall panicum, Panicum dichotomiflorum), foxtail, giant (giant foxtail, Setaria faberii), foxtail, green (green foxtail, Setaria viridis), goosegrass (Eleusine indica), johnsongrass (Sorghum halepense), ragweed (common ragweed, Ambrosia elatior), barnyardgrass (Echinochloa crus-galli), sandbur (southem sandbur, Cenchrus echinatus), arrowleaf sida (Sida rhombifolia), Italian ryegrass (Lolium multiflorum), dayflower (Virginia (VA) dayflower, Commelina virginica), field bindweed (Convolvulus arvensis), momingglory (Ipomoea coccinea), nightshade (eastern black nightshade, Solanum ptycanthum), kochia (Kochia scoparia), nutsedge, yellow (yellow nutsedge, Cyperus esculentus), horseweed (Conyza canadensis), and beggarticks (hairy beggarticks, Bidens pilosa), were planted into a silt loam soil and treated preemergence with test chemicals formulated in a non-phytotoxic solvent mixture which included a surfactant.
(§2) At the same time, plants from these crop and weed species and also waterhemp_RES1, (ALS & Triazine resistant common waterhemp, Amaranthus rudis), and waterhemp_RES2, (ALS & HPPD resistant common waterhemp, Amaranthus rudis) were planted in pots containing Redi-Earth® planting medium (Scotts Company, 14111 Scottslawn Road, Marysville, Ohio 43041) comprising spaghnum peat moss, vermiculite, wetting agent and starter nutrients were treated with postemergence applications of test chemicals formulated in the same manner. Plants ranged in height from 2 to 18 cm for postemergence treatments (1- to 4-leaf stage). Treated plants and controls were maintained in a greenhouse for 14 to 21 d, after which time all species were compared to controls and visually evaluated. Plant response ratings, summarized in Table E, are based on a scale of 0 to 100 where 0 is no effect and 100 is complete control. A dash (-) response means no test result.

[2] = system: velvetleaf (Abutilon theophrasti)
From the text: as §1, §2

[3] = system: foxtail, green (green foxtail, Setaria viridis)
From the text: as §1, §2

[4] = system: arrowleaf sida (Sida rhombifolia)
From the text: as §1, §2

[5] = system: sandbur (southem sandbur, Cenchrus echinatus)
From the text: as §1, §2

[6] = system: lambsquarters (Chenopodium album)
From the text: as §1, §2

[7] = system: pigweed, palmer (palmer pigweed, Amaranthus palmeri)
From the text: as §1, §2

[8] = system: crabgrass, Brazilian (Brazilian crabgrass, Digitaria horizontalis)
From the text: as §1, §2

[9] = system: nutsedge, yellow (yellow nutsedge, Cyperus esculentus)
From the text: as §1, §2

[10] = system: foxtail, giant (giant foxtail, Setaria faberii)
From the text: as §1, §2

[11] = system: ragweed (common ragweed, Ambrosia elatior)
From the text: as §1, §2

[12] = system: soybean (Glycine max)
From the text: as §1, §2

[13] = system: waterhemp (common waterhemp, Amaranthus rudis)
From the text: as §1, §2

[14] = system: horseweed (Conyza canadensis)
From the text: as §1, §2

[15] = system: johnsongrass (Sorghum halepense)
From the text: as §1, §2

[16] = 62 g ai/ha, scale 0 to 100 (0 no effect, 100 complete control)
[17] = 31 g ai/ha, scale 0 to 100, 0 no effect, 100 complete control
[18] = 125 g ai/ha, visual, scale 0 no effect to 100 complete control
[19] = 250 g ai/ha, visual, scale 0 no effect to 100 complete control
[20] = 125 g ai/ha, scale 0 to 100 (0 no effect, 100 complete control)

SMILES: CCOC(=O)Oc1c(C)nn(C)c(=O)c1-c1c(CC)ccc2ccccc12 [Compound 37]
- Plant response rating, Kochia [1, 16]: 0
- Plant response rating, Kochia [1, 17]: 0
- Plant response rating, Kochia [1, 18]: 0
- Plant response rating, Kochia [1, 19]: 65
- Plant response rating, Velvetleaf [2, 16]: 50
- Plant response rating, Velvetleaf [2, 20]: 70
- Plant response rating, Velvetleaf [2, 17]: 30
- Plant response rating, Velvetleaf [2, 19]: 100
- Plant response rating, Foxtail, Green [3, 16]: 60
- Plant response rating, Foxtail, Green [3, 17]: 0
- Plant response rating, Foxtail, Green [3, 18]: 65
- Plant response rating, Foxtail, Green [3, 19]: 80
- Plant response rating, Arrowleaf Sida [4, 16]: 85
- Plant response rating, Arrowleaf Sida [4, 17]: 70
- Plant response rating, Arrowleaf Sida [4, 18]: 90
- Plant response rating, Arrowleaf Sida [4, 19]: 98
- Plant response rating, Sandbur [5, 16]: 35
- Plant response rating, Sandbur [5, 20]: 50
- Plant response rating, Sandbur [5, 17]: 20
- Plant response rating, Sandbur [5, 19]: 65
- Plant response rating, Lambsquarters [6, 16]: 100
- Plant response rating, Lambsquarters [6, 17]: 100
- Plant response rating, Lambsquarters [6, 18]: 98
- Plant response rating, Lambsquarters [6, 19]: 100
- Plant response rating, Pigweed, Palmer [7, 16]: 90
- Plant response rating, Pigweed, Palmer [7, 20]: 100
- Plant response rating, Pigweed, Palmer [7, 17]: 0
- Plant response rating, Pigweed, Palmer [7, 19]: 100
- Plant response rating, Crabgrass, Brazil [8, 16]: 85
- Plant response rating, Crabgrass, Brazil [8, 17]: 70
- Plant response rating, Crabgrass, Brazil [8, 18]: 90
- Plant response rating, Crabgrass, Brazil [8, 19]: 95
- Plant response rating, Nutsedge, Yellow [9, 16]: 0
- Plant response rating, Nutsedge, Yellow [9, 20]: 65
- Plant response rating, Nutsedge, Yellow [9, 17]: 0
- Plant response rating, Nutsedge, Yellow [9, 19]: 70
- Plant response rating, Foxtail, Giant [10, 16]: 70
- Plant response rating, Foxtail, Giant [10, 17]: 65
- Plant response rating, Foxtail, Giant [10, 18]: 80
- Plant response rating, Foxtail, Giant [10, 19]: 90
- Plant response rating, Ragweed [11, 16]: 90
- Plant response rating, Ragweed [11, 20]: 95
- Plant response rating, Ragweed [11, 17]: 50
- Plant response rating, Ragweed [11, 19]: 98
- Plant response rating, Soybean [12, 16]: 0
- Plant response rating, Soybean [12, 17]: 0
- Plant response rating, Soybean [12, 19]: 0
- Plant response rating, Waterhemp [13, 16]: 75
- Plant response rating, Waterhemp [13, 20]: 98
- Plant response rating, Waterhemp [13, 17]: 0
- Plant response rating, Waterhemp [13, 19]: 100
- Plant response rating, Horseweed [14, 16]: 100
- Plant response rating, Horseweed [14, 17]: 100
- Plant response rating, Horseweed [14, 18]: 100
- Plant response rating, Horseweed [14, 19]: 100
- Plant response rating, Johnsongrass [15, 16]: 0
- Plant response rating, Johnsongrass [15, 17]: 0
- Plant response rating, Johnsongrass [15, 18]: 100
- Plant response rating, Johnsongrass [15, 19]: 100

SMILES: Cc1ccc2ccccc2c1-c1c(O)c(C)nn(C)c1=O [Compound 59]
- Plant response rating, Kochia [1, 16]: 90
- Plant response rating, Kochia [1, 17]: 80
- Plant response rating, Kochia [1, 18]: 100
- Plant response rating, Kochia [1, 19]: 100
- Plant response rating, Velvetleaf [2, 16]: 95
- Plant response rating, Velvetleaf [2, 20]: 95
- Plant response rating, Velvetleaf [2, 17]: 90
- Plant response rating, Velvetleaf [2, 19]: 98
- Plant response rating, Foxtail, Green [3, 16]: 90
- Plant response rating, Foxtail, Green [3, 17]: 65
- Plant response rating, Foxtail, Green [3, 18]: 95
- Plant response rating, Foxtail, Green [3, 19]: 100
- Plant response rating, Arrowleaf Sida [4, 16]: 95
- Plant response rating, Arrowleaf Sida [4, 17]: 80
- Plant response rating, Arrowleaf Sida [4, 18]: 98
- Plant response rating, Arrowleaf Sida [4, 19]: 98
- Plant response rating, Sandbur [5, 16]: 70
- Plant response rating, Sandbur [5, 20]: 90
- Plant response rating, Sandbur [5, 17]: 70
- Plant response rating, Sandbur [5, 19]: 90
- Plant response rating, Lambsquarters [6, 16]: 100
- Plant response rating, Lambsquarters [6, 17]: 100
- Plant response rating, Lambsquarters [6, 18]: 100
- Plant response rating, Lambsquarters [6, 19]: 100
- Plant response rating, Pigweed, Palmer [7, 16]: 98
- Plant response rating, Pigweed, Palmer [7, 20]: 100
- Plant response rating, Pigweed, Palmer [7, 17]: 95
- Plant response rating, Pigweed, Palmer [7, 19]: 100
- Plant response rating, Crabgrass, Brazil [8, 16]: 90
- Plant response rating, Crabgrass, Brazil [8, 17]: 60
- Plant response rating, Crabgrass, Brazil [8, 18]: 100
- Plant response rating, Crabgrass, Brazil [8, 19]: 100
- Plant response rating, Nutsedge, Yellow [9, 16]: 35
- Plant response rating, Nutsedge, Yellow [9, 20]: 75
- Plant response rating, Nutsedge, Yellow [9, 17]: 50
- Plant response rating, Nutsedge, Yellow [9, 19]: 70
- Plant response rating, Foxtail, Giant [10, 16]: 95
- Plant response rating, Foxtail, Giant [10, 17]: 85
- Plant response rating, Foxtail, Giant [10, 18]: 98
- Plant response rating, Foxtail, Giant [10, 19]: 100
- Plant response rating, Ragweed [11, 16]: 95
- Plant response rating, Ragweed [11, 20]: 100
- Plant response rating, Ragweed [11, 17]: 100
- Plant response rating, Ragweed [11, 19]: 100
- Plant response rating, Soybean [12, 16]: 30
- Plant response rating, Soybean [12, 20]: 30
- Plant response rating, Soybean [12, 17]: 35
- Plant response rating, Soybean [12, 19]: 70
- Plant response rating, Waterhemp [13, 16]: 100
- Plant response rating, Waterhemp [13, 20]: 100
- Plant response rating, Waterhemp [13, 17]: 75
- Plant response rating, Waterhemp [13, 19]: 100
- Plant response rating, Horseweed [14, 16]: 100
- Plant response rating, Horseweed [14, 17]: 100
- Plant response rating, Horseweed [14, 18]: 100
- Plant response rating, Horseweed [14, 19]: 100
- Plant response rating, Johnsongrass [15, 16]: 25
- Plant response rating, Johnsongrass [15, 17]: 0
- Plant response rating, Johnsongrass [15, 18]: 80
- Plant response rating, Johnsongrass [15, 19]: 80
